Data on three molecules can be found in PMC6345595 (American journal of clinical oncology, 2019).

Data set [1] can be described thus: Plasma pharmacokinetics of dovitinib, gemcitabine and capecitabine by LC/MS/MS. Type of data set: in vivo, human. The conditions noted are these: for half-life: human, oral, 300 mg, median half-life (T1/2), dovitinib 300 mg.
For data set [2] the following is noted: human, in vivo.
The subject of a further data set is VEGF. Put plainly: Plasma VEGF Quantikine ELISA. Type of data set: in vivo, human. The conditions noted are these: 5 patients, baseline vs after 19 days of dovitinib 300 mg.
In data set [3] the target is fibroblast growth factor receptors (FGFRs). The conditions noted are these: read-out: IC50 against FGFRs; cited from earlier work.
For another data set, the system named is CYP 1A1/2. The conditions noted are these: cited from earlier work.
The next data set concerns FGF23. Put plainly: Plasma FGF23 sandwich ELISA. In kind it is in vivo, human. Particulars: out of 5 patients with paired samples; during the first cycle; dovitinib 300 mg daily 5 days on and 2 days off with gemcitabine and capecitabine.
A further data set deals with basic FGF (bFGF). Put plainly: Plasma bFGF Quantikine ELISA. Type of data set: in vivo, human. Particulars: 5 patients, baseline vs after 19 days of dovitinib 300 mg. (ELISA stands for enzyme-linked immunosorbent assay.)
Setting [4] is: AUC 0–8 hours, Day 1, capecitabine 1300 mg/m^2 total daily oral dose divided twice a day, concurrently with dovitinib 300 mg and gemcitabine, N=7.
The mark [5] stands for this setting: Day 1, capecitabine 1300 mg/m^2 total daily oral dose divided twice a day, concurrently with dovitinib 300 mg and gemcitabine, plasma, N=5.
Setting [6] is: Day 1, capecitabine 1300 mg/m^2 total daily oral dose divided twice a day, concurrently with dovitinib 300 mg and gemcitabine, plasma, N=7.
[7] abbreviates: AUC 0–7.5 hours, Day 1, gemcitabine 1000 mg/m^2 intravenously, concurrently with dovitinib 300 mg and capecitabine, N=7.

With `CCCCCOC(=O)Nc1nc(=O)n([C@@H]2O[C@H](C)[C@@H](O)[C@H]2O)cc1F` [capecitabine], in data set [1] (setting [4]), the “AUC Max” value came to 14439 ng·h/mL and the “AUC Min” value came to 488 ng·h/mL. Besides, in data set [1] (setting [5]), the “T1/2 Max” value amounted to 4.07 h and the “T1/2 Min” value turned out to be 40.8 min. Also, in data set [1] (setting [6]), the “Cmax Max” value stood at 30300 ng/mL and the “Cmax Min” value was determined as 98.8 ng/mL.
One may read the half-life as the time in which the quantity being followed falls by half. Read a low half-life as fast loss. What is called IC50 is the concentration that gives 50% inhibition. On to `CN1CCN(c2ccc3nc(-c4c(N)c5c(F)cccc5[nH]c4=O)[nH]c3c2)CC1` [dovitinib], for which, in data set [2] (1 cycle), the “patients with dose limiting toxicity (grade 3 colitis)” value worked out at 1. Also, the “recommended dose for expansion / RP2D” value in data set [2] (po, 21 day) amounted to 300 mg. Further, the “changes of VEGF plasma level” value in the data set on VEGF is recorded as “no observable trend”. Besides, the “difference in dovitinib level between Day1 and 19 (autoinduction)” value in data set [1] (300 mg daily dose on 5 days on and 2 days off schedule) is “did not observe significant difference”. Besides, in data set [1] (dovitinib 300 mg dose, Day 1 vs Day 19 Cmax and AUC), the “accumulation following 3 weeks of dosing” value is on record as “slight accumulation”. Further, the half-life is around 900 min in data set [1] (plasma, Day 1) and around 780 min in data set [1] (plasma, Day 19). In data set [3], the half-inhibitory concentration (IC50) is below 10 nM. Moreover, the metabolizing enzymes result with CYP 1A1/2 was “mainly metabolized by CYP 1A1/2 and flavin-containing monooxygenase”. The “patients with increased plasma FGF23 level” value in the data set on FGF23 is reported as 4 patients. Also, in the data set on basic FGF (bFGF), the “changes of bFGF plasma level” value is recorded as “no observable trend”.
Consider `Nc1ccn([C@@H]2O[C@H](CO)[C@@H](O)C2(F)F)c(=O)n1` [gemcitabine], for which, in data set [1] (setting [7]), the “AUC Max” value worked out at 12222 ng·h/mL and the “AUC Min” value came to 6370 ng·h/mL.
